Assay results as given in PubChem BioAssay AID1259407 (Chemical Carcinogenesis Research Information System (CCRIS), 2018).
Activity calls are given as the source filed them. No rule for the calls is given here.

Test system: CCRIS mutagenicity, Ames/micronucleus/aberration tests
Experiment: CCRIS mutagenicity studies
[1] = Test System: AMES SALMONELLA TYPHIMURIUM, Strain/Indicator: TA100, Metabolic Activation: NONE, Method: STANDARD PLATE

Compound	mutagenic call (End Point: IN VITRO CHROMOSOMAL ABERRATIONS, Test System: HUMAN PERIPHERAL LYMPHOCYTES, Metabolic Activation: NONE, Method: FISH (CHROMOSOME PAINTING))	mutagenic call (End Point: IN VIVO MICRONUCLEUS, Test System: PERIPHERAL BLOOD RETICULOCYTES, Species: MOUSE, Strain/Sex: BALB/C/MALE, Route: IP INJECTION, ONCE)	mutagenic call (End Point: IN VIVO MICRONUCLEUS, Test System: SPERMATID, Species: RAT, Strain/Sex: SPRAGUE-DAWLEY/MALE, Route: IP INJECTION)	mutagenic call (End Point: IN VIVO MICRONUCLEUS, Test System: SPERMATIDS, Species: MOUSE, Strain/Sex: (102XC3H)F1/MALE, Route: IP INJECTION)	mutagenic call (End Point: IN VIVO MICRONUCLEUS, Test System: SPERMATIDS, Species: MOUSE, Strain/Sex: BALB/C/MALE, Route: IP INJECTION)	mutagenic call (End Point: IN VIVO MICRONUCLEUS, Test System: SPERMATIDS, Species: RAT, Strain/Sex: LEWIS/MALE, Route: IP INJECTION)	mutagenic call (End Point: IN VIVO MICRONUCLEUS, Test System: SPLENOCYTES, Species: MOUSE, Strain/Sex: (102XC3H)F1/MALE, Route: IP INJECTION)	mutagenic call (End Point: IN VIVO MICRONUCLEUS, Test System: SPLENOCYTES, Species: RAT, Strain/Sex: LEWIS/MALE, Route: IP INJECTION)	mutagenic call [1]	mutagenic call (Test System: AMES SALMONELLA TYPHIMURIUM, Strain/Indicator: TA1535, Metabolic Activation: NONE, Method: STANDARD PLATE)	mutagenic call (Test System: CHINESE HAMSTER OVARY, Strain/Indicator: AS52/6-THIOGUANINE, Metabolic Activation: NONE)	mutagenic call (Test System: MOUSE LYMPHOMA, Strain/Indicator: L5178Y (TK+/TK-), Metabolic Activation: NONE, Method: SUSPENSION/PLATE)	mutagenic call (Test System: MOUSE LYMPHOMA, Strain/Indicator: L5178Y (TK+/TK-), Metabolic Activation: RAT, LIVER, S-9, AROCLOR 1254, Method: SUSPENSION/PLATE)	mutagenic call (Test System: MOUSE LYMPHOMA, Strain/Indicator: L5178Y (TK+/TK-), Metabolic Activation: RAT, LIVER, S-9, Method: SUSPENSION/PLATE)	mutagenic call (Test System: UDS MOUSE SPERM CELLS, Strain/Indicator: THY INCORP, Metabolic Activation: IN VIVO, Method: LIQUID SCINTILLATION COUNTING)	mutagenic call (Test System: E. COLI, Strain/Indicator: WP2 UVRA, Metabolic Activation: NONE, Method: STANDARD PLATE)
C1O[C@@H]1[C@H]1CO1	active; positive (structural changes)	inactive; positive (d 1 -2); positive at both dose levels on d 2 (negative by d 3)	active; positive	active; positive (at 30 mg at 3 d after exposure)	active; positive	active; positive	active; positive	active; positive	active; positive	active; positive	active; positive	active; positive	active; positive	active; positive	active; positive	–
C[C@H]1[C@H](O)CCC2=CC(=O)[C@]3([C@@]4(CO)CO4)O[C@@H]3[C@@]21C	–	–	–	–	–	–	–	–	active; positive	–	–	–	–	–	–	active; positive
